Where two headings read alike, the source gives them in different places. *1 amine or outer side, *2 acyl side, *3 side chain or, on linkers, in order; H or OH if unused. Where a SMILES comes first, the peptide text is derived from it. Bridges are numbered along the chain shown (N, C = ends). [ ]: non-standard residue; d: D form. The star is where a group is joined. ξ: configuration not given here. hPhe(3-Cl-4-CF3) = N[C@@H](CCc1ccc(C(F)(F)F)c(Cl)c1)C(=O)O; NPrPhe(4-CF3) = CCCN[C@@H](Cc1ccc(C(F)(F)F)cc1)C(=O)O; X31 = C=CCN([C@@H](Cc1ccccc1)C(=O)[*:2])[*:1]; Pro(4-spirocPr) = O=C(O)[C@@H]1CC2(CC2)CN1; NMeGly(cPent) = CN[C@H](C(=O)O)C1CCCC1; Pro(4,4-F2) = O=C(O)[C@@H]1CC(F)(F)CN1; NMeNle(5-ene) = C=CCC[C@H](NC)C(=O)O; dIle(3ξ) = CCC(C)[C@@H](N)C(=O)O; NMeD = CN[C@@H](CC(=O)O)C(=O)O; NMeL = CN[C@@H](CC(C)C)C(=O)O; NMeNva = CCC[C@H](NC)C(=O)O; Morpholide = C1CN(*)CCO1; NMeA = CN[C@@H](C)C(=O)O; Ac5c = NC1(C(=O)O)CCCC1; Aze = O=C(O)[C@@H]1CCN1; Ac4c = NC1(C(=O)O)CCC1; X11 = CC1(C)CCN(*)C1; NEtG = CCNCC(=O)O; Sar = CNCC(=O)O
How the values were obtained:
[1] = target: GDP-bound NRAS wild-type protein (Homo sapiens, UniProt P01111); assay: Binding to NRAS by surface plasmon resonance (SPR), KD and KD ratio to KRAS
In short: (§1)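 Affinity is measured by surface plasmon resonance at 30°C against captured, GDP-loaded RAS carrying a biotinylated Avi tag. Compounds are titrated by single-cycle kinetics, and KD comes from a 1:1 fit.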

HRAS wild-type protein = HRAS wild-type protein (Homo sapiens, UniProt P01112); assay: Binding to HRAS by surface plasmon resonance (SPR), KD and KD ratio to KRAS
In short: as §1

[2] = test system: human lung cancer strain NCI-H441; assay type: cell-based
In short: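 Readout: […] after the ATP-based reagent. Compound: serial dilutions in dimethyl sulfoxide.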

[3] = ratio of the KD value with respect to GDP-bound NRAS wild-type protein to the KD value with respect to KRAS
[4] = ratio of the KD value with respect to HRAS wild-type protein to the KD value with respect to KRAS
[5] = ratio of KD for GDP-bound NRAS wild-type protein to KD for KRAS
[6] = ratio of KD for HRAS wild-type protein to KD for KRAS

Chain of HRAS wild-type protein (P01112 whole entry): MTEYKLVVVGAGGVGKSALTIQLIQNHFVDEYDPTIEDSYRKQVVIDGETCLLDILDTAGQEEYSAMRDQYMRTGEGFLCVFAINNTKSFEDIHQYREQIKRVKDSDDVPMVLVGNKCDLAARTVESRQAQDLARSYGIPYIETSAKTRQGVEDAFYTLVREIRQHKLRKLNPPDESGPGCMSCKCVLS
Chain of GDP-bound NRAS wild-type protein (P01111 whole entry): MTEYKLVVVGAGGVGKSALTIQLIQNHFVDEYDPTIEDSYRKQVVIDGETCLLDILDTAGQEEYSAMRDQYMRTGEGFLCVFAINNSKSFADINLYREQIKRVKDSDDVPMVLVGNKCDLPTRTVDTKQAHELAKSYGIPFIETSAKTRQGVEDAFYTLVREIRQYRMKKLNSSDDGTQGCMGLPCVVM

SMILES | IC50 [2] [µM] | NRAS /KRAS [1, 3] | HRAS /KRAS (HRAS wild-type protein; [4]) | NRAS /KRAS [1, 5] | HRAS /KRAS (HRAS wild-type protein; [6]) | NRAS /KRAS ([1]; ratio of KD value for GDP-bound NRAS wild-type protein to KD value for KRAS (SPR)) | HRAS /KRAS (HRAS wild-type protein; ratio of KD value for HRAS wild-type protein to KD value for KRAS (SPR)) | IC50 ([2]; NCI-H441 cells, 4 days, CellTiter-Glo, read-out: NCl-H441 IC50) [µM]
C=CC[C@H]1C(=O)N[C@@H]([C@@H](C)CC)C(=O)N(C)CC(=O)N(C)[C@H]2CCCCN(C2=O)[C@@H](Cc2ccc(C(F)(F)F)cc2)C(=O)N(C)CC(=O)N[C@@H](CCc2cc(F)c(C(F)(F)F)c(F)c2)C(=O)N2C[C@H](OCC)C[C@H]2C(=O)NC2(CCC2)C(=O)N(C)[C@@H](C2CCCC2)C(=O)N(C)[C@H](C(=O)N(C)C)CC(=O)N1C [PP0695] | 0.0029 | C (A compound having a KD ratio of 0.1 or more and less than 3 is denoted as C) | C (A compound having a KD ratio of 0.1 or more and less than 3 is denoted as C) |  |  |  |  | 
CCO[C@@H]1C[C@H]2C(=O)NC3(CC(F)(F)C3)C(=O)N(C)[C@@H](C3CCCC3)C(=O)N(C)C(C3CCCCC3)CC(=O)N(C)[C@@H](COC)C(=O)N[C@@H]([C@@H](C)CC)C(=O)N(C)CC(=O)N(C)[C@H]3C/C=C\CCN(C3=O)[C@@H](Cc3ccc(C(F)(F)F)cc3)C(=O)N(C)CC(=O)N[C@@H](CCc3cc(F)c(C(F)(F)F)c(F)c3)C(=O)N2C1 (stereo partly drawn) [PP1586] | 0.0855 |  |  |  |  | A (a compound having 10 or more and less than 20 is denoted as A) | A (a compound having 10 or more and less than 20 is denoted as A) | 
CCC[C@H]1C(=O)N[C@@H]([C@@H](C)CC)C(=O)N(C)CC(=O)N(C)[C@H]2C/C=C\CCN(C2=O)[C@@H](Cc2ccc(C(F)(F)F)cc2)C(=O)N(C)CC(=O)N[C@@H](CCc2ccc(CC)c(F)c2)C(=O)N2C[C@H](OCC)C[C@H]2C(=O)NC2(CC(C)(C)C2)C(=O)N(C)[C@@H](C2CCCC2)C(=O)N(C)[C@H](C(=O)N(C)C)CC(=O)N1C [PP2856] |  |  |  | A (a compound having 10 or more and less than 20 is denoted as A) | A (a compound having 10 or more and less than 20 is denoted as A) |  |  | 0.0335
CCO[C@@H]1C[C@H]2C(=O)NC3(CC(C)(C)C3)C(=O)N(C)[C@@H](C3CCCC3)C(=O)N(C)[C@H](C(=O)N(C)CC)CC(=O)N(C)[C@@H](C3CC3)C(=O)N[C@@H]([C@@H](C)CC)C(=O)N(C)CC(=O)N(C)[C@H]3C/C=C\CCN(C3=O)[C@@H](Cc3ccc(C(F)(F)F)cc3)C(=O)N(C)CC(=O)N[C@@H](CCc3cc(F)c(C(F)(F)F)c(F)c3)C(=O)N2C1 [PP2036] | 0.0091 | A (a compound having 10 or more and less than 20 is denoted as A) | A (a compound having 10 or more and less than 20 is denoted as A) |  |  |  |  | 
CC[C@H](C)[C@@H]1NC(=O)[C@H](CC(C)C)N(C)C(=O)C[C@@H](C(=O)N2CCOCC2)N(C)C(=O)[C@H](C2CCCC2)N(C)C(=O)C2(CCCC2)NC(=O)[C@@H]2CCCN2C(=O)[C@H](CCc2ccc(C(F)(F)F)c(Cl)c2)NC(=O)CN(C)C(=O)[C@H](Cc2ccc(F)cc2)N2CCCCC[C@@H](C2=O)N(C)C(=O)CN(C)C1=O [PP0612] | 0.0433 | B (a compound having 3 or more and less than 10 is denoted as B) | B (a compound having 3 or more and less than 10 is denoted as B) |  |  |  |  | 
CC[C@H](C)[C@@H]1NC(=O)[C@H](C)N(C)C(=O)C[C@@H](C(=O)N2CCOCC2)N(C)C(=O)[C@H](C2CCCC2)N(C)C(=O)C2(CCCC2)NC(=O)[C@@H]2CCCN2C(=O)[C@H](CCc2cc(F)c(C(F)(F)F)c(F)c2)NC(=O)CN(C)C(=O)[C@H](Cc2ccc(C(F)(F)F)cc2)N2CCCC[C@@H](C2=O)N(C)C(=O)CN(C)C1=O [PP0549] | 0.013 | C (A compound having a KD ratio of 0.1 or more and less than 3 is denoted as C) | B (a compound having 3 or more and less than 10 is denoted as B) |  |  |  |  | 
C=CCC[C@H]1C(=O)N(CC=C)[C@@H](Cc2ccccc2)C(=O)N(C)CC(=O)N[C@@H](CCc2ccc(C(F)(F)F)c(Cl)c2)C(=O)N2CCC[C@H]2C(=O)NC2(CCCC2)C(=O)N(C)[C@@H](C2CCCC2)C(=O)N(C)[C@H](C(=O)N2CCOCC2)CC(=O)N(C)[C@@H](CC(C)C)C(=O)N[C@H](C(C)CC)C(=O)N(C)CC(=O)N1C (stereo partly drawn) [PP0599] ([NMeL][dIle(3ξ)][Sar][NMeNle(5-ene)][X31][Sar][hPhe(3-Cl-4-CF3)]P[Ac5c][NMeGly(cPent)][NMeD]-Morpholide; lactam N-11) | 2.8 | C (A compound having a KD ratio of 0.1 or more and less than 3 is denoted as C) | B (a compound having 3 or more and less than 10 is denoted as B) |  |  |  |  | 

Further lines, with some results ahead:

IC50 [2] [µM] | SMILES | NRAS /KRAS [1, 3] | HRAS /KRAS (HRAS wild-type protein; [4]) | NRAS /KRAS [1, 5] | HRAS /KRAS (HRAS wild-type protein; [6]) | NRAS /KRAS ([1]; ratio of KD value for GDP-bound NRAS wild-type protein to KD value for KRAS (SPR)) | HRAS /KRAS (HRAS wild-type protein; ratio of KD value for HRAS wild-type protein to KD value for KRAS (SPR)) | IC50 ([2]; NCI-H441 cells, 4 days, CellTiter-Glo, read-out: NCl-H441 IC50) [µM]
0.0332 | CCCN1C(=O)CN(C)C(=O)CN(CC)C(=O)[C@H]([C@@H](C)CC)NC(=O)[C@H](CC(C)C)N(C)C(=O)C[C@@H](C(=O)N2CCOCC2)N(C)C(=O)[C@H](C2CCCC2)N(C)C(=O)C2(CCCC2)NC(=O)[C@@H]2CC3(CC3)CN2C(=O)[C@H](CCc2ccc(C(F)(F)F)c(Cl)c2)NC(=O)CN(C)C(=O)[C@@H]1Cc1ccc(C(F)(F)F)cc1 [PP0295] ([NMeL]I[NEtG][Sar][NPrPhe(4-CF3)][Sar][hPhe(3-Cl-4-CF3)][Pro(4-spirocPr)][Ac5c][NMeGly(cPent)][NMeD]-Morpholide; lactam N-11) |  |  | B (a compound having 3 or more and less than 10 is denoted as B) | C (A compound having a KD ratio of 0.1 or more and less than 3 is denoted as C) |  |  | 
0.0012 | CCCN1C(=O)CN(C)C(=O)CNC(=O)[C@H]([C@@H](C)CC)NC(=O)[C@H](CC(C)C)N(C)C(=O)C[C@@H](C(=O)N(C)C)N(C)C(=O)[C@H](C2CCCC2)N(C)C(=O)C2(CCC2)NC(=O)[C@@H]2CC(F)(F)CN2C(=O)[C@H](CCc2ccc(C(F)(F)F)c(Cl)c2)NC(=O)CN(C)C(=O)[C@@H]1Cc1ccc(C(F)(F)F)cc1 [PP0420] ([NMeL]IG[Sar][NPrPhe(4-CF3)][Sar][hPhe(3-Cl-4-CF3)][Pro(4,4-F2)][Ac4c][NMeGly(cPent)][NMeD]-NMe2; lactam N-11) | B (a compound having 3 or more and less than 10 is denoted as B) | C (A compound having a KD ratio of 0.1 or more and less than 3 is denoted as C) |  |  |  |  | 
0.0344 | CCCN1C(=O)CN(C)C(=O)CN(C)C(=O)[C@H]([C@@H](C)CC)NC(=O)[C@H](CC(C)C)N(C)C(=O)C[C@@H](C(=O)N2CCC(C)(C)C2)N(C)C(=O)[C@H](C2CCCC2)N(C)C(=O)C2(CCCC2)NC(=O)[C@@H]2CCCN2C(=O)[C@H](CCc2ccc(C(F)(F)F)c(Cl)c2)NC(=O)CN(C)C(=O)[C@@H]1Cc1ccc(C(F)(F)F)cc1 [PP0177] ([NMeL]I[Sar][Sar][NPrPhe(4-CF3)][Sar][hPhe(3-Cl-4-CF3)]P[Ac5c][NMeGly(cPent)][NMeD]-X11; lactam N-11) |  |  | B (a compound having 3 or more and less than 10 is denoted as B) | C (A compound having a KD ratio of 0.1 or more and less than 3 is denoted as C) |  |  | 
0.0046 | CCC[C@H]1C(=O)N[C@@H]([C@@H](C)CC)C(=O)N(C)[C@@H](C)C(=O)N2CC[C@H]2C(=O)N(CCC)[C@@H](Cc2ccc(C(F)(F)F)cc2)C(=O)N(C)CC(=O)N[C@@H](CCc2ccc(C(F)(F)F)c(Cl)c2)C(=O)N2CC(F)(F)C[C@H]2C(=O)NC2(CCCC2)C(=O)N(C)[C@@H](C2CCCC2)C(=O)N(C)[C@H](C(=O)N2CCOCC2)CC(=O)N1C [PP0205] ([NMeNva]I[NMeA][Aze][NPrPhe(4-CF3)][Sar][hPhe(3-Cl-4-CF3)][Pro(4,4-F2)][Ac5c][NMeGly(cPent)][NMeD]-Morpholide; lactam N-11) |  |  | C (A compound having a KD ratio of 0.1 or more and less than 3 is denoted as C) | C (A compound having a KD ratio of 0.1 or more and less than 3 is denoted as C) |  |  | 
